From patent publication US20180344726A1, “ABUSE RESISTANT TRANSDERMAL DELIVERY DEVICES AND COMPOSITIONS COMPRISING AN OPIOID AGONIST AND A NON-TRANSDERMALLY DELIVERED N-OXIDE DERIVATIVE OF AN OPIOID ANTAGONIST FOR THE TREATMENT OF PAIN” (priority 2015, published 2018)
Where “and” joins values, the source holds several entries; their conditions need not be identical. Identical values can stand only once. Like-named read-outs stand apart in the source and are kept apart here.

Key:
[1] = pKa analysis by pH-metric triple titration; assay type: physicochemical; details: […] C., […] KCl
Protocol: pKa analysis was performed using a pH-metric method. […] No precipitation or degradation was observed and two pKas were determined from the potentiometric data. Log P was determined using the potentiometric (pH-metric method). The sample was titrated in various ratios of octanol/water in two titrations covering the pH range 2.0-12.0 at concentrations of 1.9-1.1 mM. The shift of the aqueous pKas in the presence of octanol was used to determine the log P of the neutral species.

[2] = +37° C.; for Mean concentration of Naloxone N-oxide in human plasma samples / Mean concentration of Naloxone N-oxide in human whole blood samples: mean of n=3; for Concentrations of Naloxone N-oxide in human plasma samples / Concentrations of Naloxone N-oxide in human whole blood samples: single replicates
Excerpt: Analytical procedures followed were based on those outlined in the “Guideline on Bioanalytical Method Validation”, EMA, CHMP, EWP, July 2011 and “Reflection paper for laboratories that perform the analysis or evaluation of clinical trial samples, 28 Feb. 2012, EMA/INS/GCP/532137/2010” with reference to the “Guidance for Industry, Bioanalytical Method Validation” recommendations issued by the U.S. Department of Health and Human Services, Food and Drug Administration, Center for Drug Evaluation and Research (CDER), Center for Veterinary Medicine (CVM), May 2001, BP.
Control blank human plasma and blood containing K2EDTA as an anti-coagulant, was obtained from Clinical Trials Laboratory Service or BAS volunteers and was stored at nominally −20° C. and +4° C., respectively, when not in use. The mass spectrometer used was an Applied Biosystems AP15000 with the following settings:
All instrument control, data collection, peak area integration and storage was performed using Analyst (version 1.5.2). Peak areas were then imported into Watson LIMS (version 7.2.0.02) for regression and quantification. The mass spectrometer response (peak area ratio of analyte to internal standard) of each calibration standard was calculated by Watson LIMS and plotted against the nominal (prepared) concentration. A weighted (1/x^2) least squares linear regression analysis was used to calculate an equation of the calibration line.
Any concentrations below this level are reported as below the limit of quantification (BLQ). Samples with initial concentrations above the upper limit of quantification ([…]) were re-injected with a reduced injection volume (alongside QC High with reduced injection volume) and sample concentrations interpolated against a calibration curve injected with normal injection volume.

[3] = spiked with Naloxone-N-oxide 10 ng/mL, 0 minutes
[4] = spiked with Naloxone-N-oxide 10 ng/mL, 10 minutes
[5] = spiked with Naloxone-N-oxide 10 ng/mL, 20 minutes
[6] = spiked with Naloxone-N-oxide 10 ng/mL, 30 minutes
[7] = spiked with Naloxone-N-oxide 10 ng/mL, 45 minutes
[8] = spiked with Naloxone-N-oxide 10 ng/mL, 60 minutes
[9] = spiked with Naloxone-N-oxide 10 ng/mL, 120 minutes
[10] = spiked with Naloxone-N-oxide 50 ng/mL, 0 minutes
[11] = spiked with Naloxone-N-oxide 50 ng/mL, 10 minutes
[12] = spiked with Naloxone-N-oxide 50 ng/mL, 20 minutes

In the case of C=CC[N+]1([O-])CC[C@]23c4c5ccc(O)c4O[C@H]2C(=O)CC[C@@]3(O)[C@H]1C5 (stereo partly drawn) [Naloxone N-oxide], the pKa ([1]; Type Acid) is reported as 8.55 ± 0.01, the pKa ([1]; Type Base) is reported as 2.96 ± 0.01 and the “Conversion of Naloxone-N-oxide to Naloxone in plasma (in words)” value ([2]; 2 hour time course) is reported as “small, but insignificant amount of conversion”. The “Conversion to Naloxone in whole blood (in words)” value ([2]; 2 hour time course) was “rapidly converts to Naloxone in whole blood”, the “Mean concentration of Naloxone N-oxide in human plasma samples” value [2, 3] was 10.0 ng/mL and the “Mean concentration of Naloxone N-oxide in human whole blood samples” value [2, 3] was 7.45 ng/mL. For the same molecule, the “Concentrations of Naloxone N-oxide in human plasma samples” value (“Concentrations … in human plasma samples” for short) [2, 3] was 9.93 ng/mL and 9.87 ng/mL and 10.2 ng/mL, the “Concentrations of Naloxone N-oxide in human whole blood samples” value [2, 3] was 7.95 ng/mL and 7.69 ng/mL and 6.70 ng/mL and the “Mean concentration of Naloxone N-oxide in human plasma samples” value [2, 4] was 10.2 ng/mL. The “Mean concentration of Naloxone N-oxide in human whole blood samples” value [2, 4] was 6.02 ng/mL, the “Concentrations … in human plasma samples” value [2, 4] was 9.61 ng/mL and 10.4 ng/mL and 10.7 ng/mL and the “Concentrations of Naloxone N-oxide in human whole blood samples” value [2, 4] was 5.94 ng/mL and 6.11 ng/mL and 6.01 ng/mL. The “Mean concentration of Naloxone N-oxide in human plasma samples” value [2, 5] was 10.3 ng/mL, the “Mean concentration of Naloxone N-oxide in human whole blood samples” value [2, 5] was 4.53 ng/mL and the “Concentrations … in human plasma samples” value [2, 5] was 10.6 ng/mL and 10.3 ng/mL and 9.93 ng/mL. The “Concentrations of Naloxone N-oxide in human whole blood samples” value [2, 5] was 4.70 ng/mL and 4.15 ng/mL and 4.75 ng/mL, the “Mean concentration of Naloxone N-oxide in human plasma samples” value [2, 6] was 9.96 ng/mL and the “Mean concentration of Naloxone N-oxide in human whole blood samples” value [2, 6] was 3.13 ng/mL. For the same molecule, the “Concentrations … in human plasma samples” value [2, 6] was 9.37 ng/mL and 10.1 ng/mL and 10.4 ng/mL, the “Concentrations of Naloxone N-oxide in human whole blood samples” value [2, 6] was 2.77 ng/mL and 3.14 ng/mL and 3.47 ng/mL and the “Mean concentration of Naloxone N-oxide in human plasma samples” value [2, 7] was 10.4 ng/mL. For the same molecule, the “Mean concentration of Naloxone N-oxide in human whole blood samples” value [2, 7] was 2.15 ng/mL, the “Concentrations … in human plasma samples” value [2, 7] was 10.7 ng/mL and 10.0 ng/mL and 10.4 ng/mL and the “Concentrations of Naloxone N-oxide in human whole blood samples” value [2, 7] was 2.18 ng/mL and 2.27 ng/mL and 2.01 ng/mL. The “Mean concentration of Naloxone N-oxide in human plasma samples” value [2, 8] was 10.3 ng/mL, the “Mean concentration of Naloxone N-oxide in human whole blood samples” value [2, 8] was 1.87 ng/mL and the “Concentrations … in human plasma samples” value [2, 8] was 10.3 ng/mL and 10.6 ng/mL and 10.1 ng/mL. The “Concentrations of Naloxone N-oxide in human whole blood samples” value [2, 8] was 1.79 ng/mL and 1.81 ng/mL and 2.02 ng/mL, the “Mean concentration of Naloxone N-oxide in human plasma samples” value [2, 9] was 10.3 ng/mL and the “Mean concentration of Naloxone N-oxide in human whole blood samples” value [2, 9] was 1.51 ng/mL. For the same molecule, the “Concentrations … in human plasma samples” value [2, 9] was 10.4 ng/mL (2×) and 10.1 ng/mL, the “Concentrations of Naloxone N-oxide in human whole blood samples” value [2, 9] was 1.55 ng/mL and 1.57 ng/mL and 1.41 ng/mL and the “Mean concentration of Naloxone N-oxide in human plasma samples” value [2, 10] was 44.9 ng/mL. The “Mean concentration of Naloxone N-oxide in human whole blood samples” value [2, 10] was 45.4 ng/mL, the “Concentrations … in human plasma samples” value [2, 10] was 48.5 ng/mL and 45.6 ng/mL and 40.5 ng/mL and the “Concentrations of Naloxone N-oxide in human whole blood samples” value [2, 10] was 48.9 ng/mL and 41.3 ng/mL and 46.0 ng/mL. For the same molecule, the “Mean concentration of Naloxone N-oxide in human plasma samples” value [2, 11] was 46.0 ng/mL, the “Mean concentration of Naloxone N-oxide in human whole blood samples” value [2, 11] was 25.9 ng/mL and the “Concentrations … in human plasma samples” value [2, 11] was 43.4 ng/mL and 48.7 ng/mL and 45.8 ng/mL. The “Concentrations of Naloxone N-oxide in human whole blood samples” value [2, 11] was 26.0 ng/mL and 25.0 ng/mL and 26.8 ng/mL, the “Mean concentration of Naloxone N-oxide in human plasma samples” value [2, 12] was 48.4 ng/mL and the “Mean concentration of Naloxone N-oxide in human whole blood samples” value [2, 12] was 20.4 ng/mL. The “Concentrations … in human plasma samples” value [2, 12] was 50.1 ng/mL and 47.1 ng/mL and 48.1 ng/mL, the “Concentrations of Naloxone N-oxide in human whole blood samples” value [2, 12] was 20.3 ng/mL and 21.1 ng/mL and 19.9 ng/mL and the “Mean concentration of Naloxone N-oxide in human plasma samples” value ([2]; spiked with Naloxone-N-oxide 50 ng/mL, 30 minutes) was 46.3 ng/mL.
